# Patent publication US20250295799A1, “ANTIBODY-DRUG CONJUGATES TARGETING GLYPICAN-3 AND METHODS OF USE” (Zymeworks BC Inc., priority 2022, published 2025)
# Tests used:
# [1] = tested on: JHH-7 cells (high GPC3-expressing); test: Internalization by flow cytometry (quenched AF488); format: cell-based; settings: antibody 10 nM
# Protocol: (§1) Cells were seeded at 50,000 cells/well in 48-well plates and incubated overnight under standard culturing conditions (37° C./5% CO2) in Gibco™ Dulbecco's Modified Eagle Media (DMEM) (Thermo Fisher Scientific, Waltham, MA; Cat. No. 11995040) with 10% Fetal Bovine Serum (FBS) (Thermo Fisher Scientific, Waltham, MA; Cat. No. 12483020) for Hep G2 cells, and Gibco™ William's E Medium, GlutaMAX™ Supplement (Thermo Fisher Scientific, Waltham, MA; Cat. No. 32551020) with 10% FBS (Thermo Fisher Scientific, Waltham, MA; Cat. No. 12483020) for JHH-7 cells. Coupled antibodies were added to cells the following day at 10 nM or at 100 nM and incubated under standard culturing conditions for 5-24 hours to allow for internalization. Following incubation, cells were dissociated, washed, and surface AF488 fluorescence was quenched using an anti-AF488 antibody (Life Technologies, Carlsbad, CA; Cat. No. A-11094) at 100 nM for 30 minutes at 4° C. Quenched AF488 fluorescence (internalized fluorescence) was detected by flow cytometry on a BD LSRFortessa™ Cell Analyzer (BD Biosciences, Franklin Lake, NJ) with 1,000 minimum events collected per well.
# as §1, with “CO2)” for “CO2) in Gibco™ Dulbecco's Modified Eagle Media (DMEM) (Thermo Fisher Scientific, Waltham, MA; Cat. No. 11995040) with 10% Fetal Bovine Serum (FBS) (Thermo Fisher Scientific, Waltham, MA; Cat. No. 12483020) for Hep G2 cells, and”, “12483020).” for “12483020) for JHH-7 cells.”, “5” for “10 nM or at 100”, “24” for “5-24”, “well. […]” for “well.”
# JHH-7 cells (GPC3-high) = test: On-cell binding by flow cytometry; settings: 24 h at 4 °C
# Protocol: Briefly, cells were seeded at 50,000 cells/well in V-bottom 96-well plates and treated with antibody for 24 hours at 4° C. to prevent internalization. […] Following incubation and washing, fluorescence was detected by flow cytometry on a BD LSRFortessa™ Cell Analyzer (BD Biosciences, Franklin Lake, NJ) with 1,000 minimum events collected per well. AF647/APC-A GeoMean (fluorescence signal geometric mean, proportional to anti-Human AF647 binding) in live cell population was plotted against antibody concentration using GraphPad Prism Version 9 (GraphPad Software, San Diego, CA). The Bmax, Curve Hill Slope (h) and Kd values were derived from the “Specific binding with Hill slope” nonlinear regression curve fit in GraphPad Prism Version 9.
# The on-cell binding capabilities of light chain (LC)-modified M3-H18L6 antibody constructs were assessed on JHH-7 (hepatocellular carcinoma; GPC3-high) and JHH-5 (hepatocellular carcinoma; GPC3-mid) by flow cytometry as described below. […] The assay was carried out as described in Example 13.
# Briefly, plasma stress was carried out by incubating M3-H18L6 LC-modified antibodies in mouse plasma (BioIVT, Westbury, NY; Cat. No. MSE00PL38NC-0103070) for 14 days in a 37° C./5% CO2 incubator. […] Following incubation and washing, fluorescence was detected by flow cytometry on a BD LSRFortessa™ Cell Analyzer (BD Biosciences, Franklin Lake, NJ) with 1,000 minimum events collected per well. AF647/APC-A GeoMean (fluorescence signal geometric mean, proportional to anti-Human AF647 binding) in live cell population was plotted against antibody concentration using GraphPad Prism Version 9 (GraphPad Software, San Diego, CA). […] Following incubation, cells were dissociated, washed, and surface AF488 fluorescence was quenched using an anti-AF488 antibody (Life Technologies, Carlsbad, CA; Cat. No. A-11094) at 100 nM for 30 minutes at 4° C. Quenched AF488 fluorescence (internalized fluorescence) was detected by flow cytometry on a BD LSRFortessa™ Cell Analyzer (BD Biosciences, Franklin Lake, NJ) with 1,000 minimum events collected per well.
# [2] = tested on: Hep G2 cells (high GPC3-expressing); test: Internalization by flow cytometry (quenched AF488); format: cell-based; settings: antibody 10 nM
# Protocol: as §1
# HepG2 cells (GPC3-high) = test: On-cell binding by flow cytometry; settings: 24 h at 4 °C
# Protocol: Briefly, cells were seeded at 50,000 cells/well in V-bottom 96-well plates and treated with antibody for 24 hours at 4° C. to prevent internalization. […] Following incubation and washing, fluorescence was detected by flow cytometry on a BD LSRFortessa™ Cell Analyzer (BD Biosciences, Franklin Lake, NJ) with 1,000 minimum events collected per well.
substance,measurement,setting,value
palivizumab [v22277 (palivizumab)],"Internalized fluorescence, fold increase over palivizumab, JHH-7, 5 hours",[1]; 5 hours,1.0 fold
same,"Internalized fluorescence, fold increase over palivizumab, JHH-7, 24 hours",[1]; 24 hours,1.0 fold
same,Kd,JHH-7 cells (GPC3-high),> 60 nM
same,"Internalized fluorescence, fold increase over palivizumab, Hep G2, 5 hours",[2]; 5 hours,1.0 fold
same,"Internalized fluorescence, fold increase over palivizumab, Hep G2, 24 hours",[2]; 24 hours,1.0 fold
same,Kd,HepG2 cells (GPC3-high),> 60 nM
